{"source": "patent US20060099216A1", "about": "“Peptide delivery” (Biovation Limited, priority 1994, published 2006)", "system": "mouse Sp2/0 cells", "assay": "CTL assay: 51Cr release from target Sp2/0 cells treated with antibody fragments or peptide, with p53 peptide-specific CTLs", "format": "cell-based", "conditions": "Sp2/0 target cells, treated 4 hours at 37° C. with antibody fragment dilutions or 10 μg/ml peptide"}
{"sequence": "KYICNSSCM (p53 CTL reactive peptide) [p53 peptide only]", "values": [{"measurement": "% Specific 51Cr Release at E/T Ratio 5:1", "setting": "effector:target 5:1", "value": 41, "unit": "%"}, {"measurement": "% Specific 51Cr Release at E/T Ratio 10:1", "setting": "effector:target 10:1", "value": 57, "unit": "%"}, {"measurement": "% Specific 51Cr Release at E/T Ratio 20:1", "setting": "effector:target 20:1", "value": 46, "unit": "%"}]}
